According to US12558342B2, “2-[2-({12,12-dimethyl-4-oxo-6-phenyl-3,11-dioxatricyclo[8.4.0.0,2,7]tetradeca-1,5,7,9-tetraen-8-yl}oxy)acetamido]benzamide and derivatives as inhibitor of clock:bmal1 interaction for the treatment of circadian rhythm diseases and disorders” (KOC UNIVERSITESI, priority 2019, dated 2026):

Columns and labels:
[1] = biological target: T1, CLOCK-F80A-K220A (Homo sapiens, UniProt O15516, F80A/K220A); experiment: Pull-down assay with biotinylated CLK8, HEK 293T cells overexpressing CLOCK-F80A-K220A and BMAL1; format: binding
T1 construct: expressed in transfected cells; host or cells: HEK 293T
T1 sequence (O15516 1-846 F80A/K220A): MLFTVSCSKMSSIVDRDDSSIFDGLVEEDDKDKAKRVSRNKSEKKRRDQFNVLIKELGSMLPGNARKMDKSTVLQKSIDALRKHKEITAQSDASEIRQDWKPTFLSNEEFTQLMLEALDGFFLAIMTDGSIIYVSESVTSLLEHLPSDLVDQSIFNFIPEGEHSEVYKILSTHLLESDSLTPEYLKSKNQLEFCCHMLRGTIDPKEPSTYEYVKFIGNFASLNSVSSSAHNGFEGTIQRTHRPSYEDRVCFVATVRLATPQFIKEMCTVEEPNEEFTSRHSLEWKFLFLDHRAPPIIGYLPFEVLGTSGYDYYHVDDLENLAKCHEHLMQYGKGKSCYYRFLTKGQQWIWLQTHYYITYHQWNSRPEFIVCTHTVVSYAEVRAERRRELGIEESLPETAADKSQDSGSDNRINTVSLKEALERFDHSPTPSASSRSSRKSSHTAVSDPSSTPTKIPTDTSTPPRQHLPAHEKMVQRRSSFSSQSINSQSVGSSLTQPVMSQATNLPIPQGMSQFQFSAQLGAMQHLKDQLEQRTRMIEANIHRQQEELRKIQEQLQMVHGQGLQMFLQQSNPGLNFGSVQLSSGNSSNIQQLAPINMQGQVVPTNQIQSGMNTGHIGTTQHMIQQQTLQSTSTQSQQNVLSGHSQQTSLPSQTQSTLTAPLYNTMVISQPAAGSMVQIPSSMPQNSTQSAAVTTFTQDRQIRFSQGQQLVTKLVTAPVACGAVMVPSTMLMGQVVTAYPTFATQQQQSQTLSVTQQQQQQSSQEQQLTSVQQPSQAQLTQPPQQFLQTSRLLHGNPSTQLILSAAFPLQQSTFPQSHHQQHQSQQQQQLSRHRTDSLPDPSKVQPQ
Experimental: HEK293T cells were transiently transfected with tag-free hsClock and mBmal1. After 48 hours of transfection, cells were harvested and whole cell lysate was prepared with ice-cold lysis buffer (50 mM Tris-HCl pH 7.4, 2 mM EDTA, 1 mM MgCl2, 0.2% NP-40, 1 mM sodium orthovanadate, 1 mM sodium fluoride and protease inhibitor cocktail) followed by centrifugation at 7000×g at 4° C. for 10 minutes. Lysate was diluted with ice-cold 2× binding buffer (100 mM Tris-HCl pH 7.4, 300 mM NaCl, 0.2% NP-40, 2 mM sodium orthovanadate, 2 mM sodium fluoride, and protease inhibitor cocktail) 27. The lysate was divided into three fractions to be treated with either DMSO, or 20 μM of bitoinylated-CLK8 (bait) with or without 200 μM CLK8 (competitor). The lysate-compound samples were incubated and mixed continuously at 4° C. for 1 hour. After equilibrating NeutroAvidin Agarose resin (Thermo Scientific) with lysis buffer, the lysate-compound mixture and NeutroAvidin Agarose resin were incubated and mixed continuously at 4° C. overnight. The beads were washed four times with 1× binding buffer. To elute the bound proteins Laemmli buffer was added and samples were heated at 95° C. for 7 minutes. The pull-down precipitates were subjected to SDS-PAGE and transferred to a PVDF membrane (Millipore). […]

[2] = test system: Bmal1, Clock, and Cry1; experiment: In vivo study in mouse liver, qPCR; details: 25 mg/kg i.p., 6 h
Experimental: Male C57BL/6J mice, 8 weeks of age, weighing 18-24 g were treated with two different single doses of CLK8 (25 mg/kg n=5 per each dose) intraperitoneally. Control mice (n=3) were only treated with vehicle (DMSO:Cremophor EL: 0.9% NaCl; 2.5:15:82.5, v/v, i.p.). Water and food were provided ad libitum throughout the experiments. Six hours after injection, mice were sacrificed by cervical dislocation. Liver tissues were removed, frozen in liquid nitrogen and stored at −80° C. until further processing.

CC1(C)CCc2c(cc(OCC(=O)Nc3ccccc3C(N)=O)c3c(-c4ccccc4)cc(=O)oc23)O1 [CLK8, 2-[2-({12,12-dimethyl-4-oxo-6-phenyl-3,11-dioxatricyclo [8.4.0.0,2,7]tetradeca-1,5,7,9-tetraen-8-yl}oxy)acetamido] benzamide]
precipitated mutant CLOCK in the presence of the competitor [1]: did not disappear | Cry1 gene's transcriptional level (liver) [2]: significantly changed
